Experimental data taken from patent US20250027932A1, “DIFFERENTIATION OF HUMAN TISSUES WITHOUT CILIA FROM PLURIPOTENT STEM CELLS” (University of Washington, priority 2021, published 2025).

Tests used:
Format in all cases: cell-based, human
hPSCs = assay: OCT4 and BRY immunofluorescence in hPSCs after CHIR99021; settings: increasing doses of CHIR99021 in mTeSR1 for 48 hours; kinesin-2 knockout hPSCs, no significant difference from controls
Method: Cells and organoid cultures were fixed with 4% paraformaldehyde (Electron Microscopy Sciences) for 15 minutes, washed 3 times with Phosphate buffered saline (PBS, Thermo Fisher), blocked for 1 hour with blocking buffer (5% normal donkey serum and 0.3% Triton X-100 in PBS), and incubated overnight with primary antibodies including mouse acetylated α-tubulin (Sigma T7451), rabbit acetylated α-tubulin (Cell Signaling, D20G3), α-fetoprotein (AFP) (R&D MAB1368), α-smooth muscle actin (SMA) (R&D MAB1420), ZO-1 (Invitrogen, 339100), E-Cadherin (Abcam, ab11512), Nephrin (R&D, AF4269), p-Histone H3 (Santa Cruz sc-8656-R), OCT4 (Abcam ab19857), brachyury (BRY) (Santa Cruz sc-17745), SOX2 (Abcam ab97959), and 3-Tubulin III (Tuj1) (Sigma-Aldrich T2200-200UL). After washing with PBS, secondary donkey antibodies conjugated with Alexa-Fluor 488, 555, or 647 (1:500, Thermo Fisher) were applied, or Fluorescein Lotus Lectin (Vector Labs, FL-1321), with DAPI to stain the nuclei. […]
(§1) Fluorescence intensity analysis of BRY and OCT4 was performed on images processed and imaged identically, individual cells were identified automatically using Cell Profiler 2.0 and the average intensity per cell was plotted in BBP. […] Immunoblot band intensity levels were quantified using the ImageJ magic wand tool, normalized to the loading control, and pooled from multiple experiments to determine average and S.E.M. values. […]

[1] = tested on: hedgehog signaling (GLI3, GLI1) in control hPSC kidney organoid cultures; assay: GLI3 and GLI1 immunoblots of kidney organoid cultures from control hPSCs treated with hedgehog modulators
Method: (§2) KIF3A^−/−, KIF3B^−/− and isogenic control hPSCs were lysed with RIPA buffer containing protease and phosphatase inhibitors (Roche). Protein concentration was determined using a Pierce BCA protein assay kit. 50 μg of total protein was separated in a 4-20% acrylamide gel (Bio-Rad) and analyzed with silver stain (Bio-Rad) or transferred onto a PDVF membrane using standard procedures. 5% milk was used as a blocking agent prior to and during immunoblotting. Blots were probed with antibodies raised against PC1 (Santa Cruz sc-130554), PC2 (Santa Cruz sc-25749), KIF3A (Abcam ab11259), KIF3B (Cell Signaling 13817), […] (Cell Signaling 4970), FLOT1 (Cell Signaling 18634), IFT88 (Proteintech 13967-1-AP), ARL13B (Proteintech 17711-1-AP), GLI1 (Cell Signaling 3538), GLI2 (Abcam ab26056), PTCH1 (Cell Signaling 8358), ALIX (Cell Signaling 2171), ANXA5 (Cell Signaling 8555), GM130 (Cell Signaling 12480), HPS70 (Cell Signaling 4876), CD9 (Cell Signaling 13174), ICAM-1 (Cell Signaling 4915), and EpCAM (Cell Signaling 2626).
(§3) Kidney organoids were generated as previously described (Freedman, B. S. et al. Modelling kidney disease with CRISPR-mutant kidney organoids derived from human pluripotent epiblast spheroids. Nat Commun 6, 8715 (2015)). Briefly, dissociated hPSCs were plated into 96 or 24 well plates coated with 1% Geltrex (Thermo Fisher) in mTeSR1 (STEMCELL Technologies) supplemented with 10 μM Rho-kinase inhibitor Y27632 (Tocris Bioscience). The next morning, mTeSR1 containing 1.5% Geltrex was added to the wells, and the media was changed again to mTeSR1 24 hours later. 72 hours after plating, cells were treated with 12 μM CHIR99021 (Stemgent) in RPMI medium containing 1× Glutamax (Thermo Fisher) with 2 ng/ml recombinant BMP-4 (Peprotech) to induce kidney differentiation. 36 hours after treatment, the medium was changed to RPMI supplemented with B27 (RB medium, Thermo Fisher). RB medium changes were performed every three days. When indicated, organoid cultures were supplemented with 1 μM SAG or 10 μM Cyclopamine (both from Cayman Chemical) starting with the first addition of RB on day 1.5 (36 hours after CHIR99021 treatment on day 0) and maintained thereafter in RB media containing these compounds at all subsequent time points.
Fluorescence intensity analysis of BRY and OCT4 was performed on images processed and imaged identically, individual cells were identified automatically using Cell Profiler 2.0 and the average intensity per cell was plotted in BBP. Line scan analyses were conducted utilizing the Intensity Profile function in NIS Elements. A single line scan of equal length was performed on each structure, and subsequently these were averaged to generate the graphs, plotting pixel intensity values for each channel on the y-axis against the points along the line on the x-axis. Immunoblot band intensity levels were quantified using the ImageJ magic wand tool, normalized to the loading control, and pooled from multiple experiments to determine average and S.E.M. values. A two-tailed t-test for two samples with unequal variance was applied to determine significance. In cases where a treatment condition was applied, a paired t-test was performed. Statistical analyses were performed in GraphPad Prism 9 software.

[2] = tested on: hedgehog signaling (GLI3, GLI1) in KIF3A−/− and KIF3B−/− mutants; assay: GLI3 and GLI1 immunoblots of KIF3A−/− and KIF3B−/− kidney organoid cultures treated with hedgehog modulators; settings: for GLI3/GLI1 response to prolonged treatment: day 18, 1 μM SAG or 10 μM cyclopamine starting on day 1.5
Method: as §2
Kidney organoids were generated as previously described (Freedman, B. S. et al. Modelling kidney disease with CRISPR-mutant kidney organoids derived from human pluripotent epiblast spheroids. Nat Commun 6, 8715 (2015)). Briefly, dissociated hPSCs were plated into 96 or 24 well plates coated with 1% Geltrex (Thermo Fisher) in mTeSR1 (STEMCELL Technologies) supplemented with 10 μM Rho-kinase inhibitor Y27632 (Tocris Bioscience). The next morning, mTeSR1 containing 1.5% Geltrex was added to the wells, and the media was changed again to mTeSR1 24 hours later. […]
as §1

[3] = tested on: kidney organoid cultures derived from control hPSCs; assay: Organoid lineage differentiation in control cultures (immunofluorescence, 96-wells); settings: 1 μM SAG or 10 μM cyclopamine from day 1.5 to day 18
Method: as §3
Cells and organoid cultures were fixed with 4% paraformaldehyde (Electron Microscopy Sciences) for 15 minutes, washed 3 times with Phosphate buffered saline (PBS, Thermo Fisher), blocked for 1 hour with blocking buffer (5% normal donkey serum and 0.3% Triton X-100 in PBS), and incubated overnight with primary antibodies including mouse acetylated α-tubulin (Sigma T7451), rabbit acetylated α-tubulin (Cell Signaling, D20G3), α-fetoprotein (AFP) (R&D MAB1368), α-smooth muscle actin (SMA) (R&D MAB1420), ZO-1 (Invitrogen, 339100), E-Cadherin (Abcam, ab11512), Nephrin (R&D, AF4269), p-Histone H3 (Santa Cruz sc-8656-R), OCT4 (Abcam ab19857), brachyury (BRY) (Santa Cruz sc-17745), SOX2 (Abcam ab97959), and 3-Tubulin III (Tuj1) (Sigma-Aldrich T2200-200UL). After washing with PBS, secondary donkey antibodies conjugated with Alexa-Fluor 488, 555, or 647 (1:500, Thermo Fisher) were applied, or Fluorescein Lotus Lectin (Vector Labs, FL-1321), with DAPI to stain the nuclei. Stained cells were imaged in PBS using a Nikon AIR confocal microscope or Eclipse TE wide-field microscope.

GLI1 in EV of hPSCs = assay: GLI1 immunoblot of extracellular vesicles (EV) from hPSCs ±SAG; settings: SAG stimulation
Method: KIF3A^−/−, KIF3B^−/− and isogenic control hPSCs were lysed with RIPA buffer containing protease and phosphatase inhibitors (Roche). Protein concentration was determined using a Pierce BCA protein assay kit. 50 μg of total protein was separated in a 4-20% acrylamide gel (Bio-Rad) and analyzed with silver stain (Bio-Rad) or transferred onto a PDVF membrane using standard procedures. 5% milk was used as a blocking agent prior to and during immunoblotting. […]
as §1

[4] = 1 μM SAG starting on day 1.5, by day 4 of differentiation
[5] = day 18, prolonged 16.5 day treatment, 1 μM SAG

Row | Structure (SMILES) | brachyury (BRY) immunofluorescence (hPSCs) | GLI1 levels [1, 4] | GLI3R levels [1, 4] | GLI1 [1, 5] | GLI3 [1, 5] | effect on GLI3 or GLI1 levels ([2]; 1 μM SAG starting on day 1.5) | GLI3/GLI1 response to prolonged treatment [2] | Kidney organoid differentiation (nephron organoids per well) [3] | Neuron differentiation (TUJ1+) [3] | SOX2+ neuronal progenitor cells [3] | GLI1 in EV (GLI1 in EV of hPSCs; control or PKD1−/− hPSCs) | GLI1 in EV (GLI1 in EV of hPSCs; kinesin-2 knockouts) | GLI3R ([1]; day 18, 10 μM cyclopamine starting on day 1.5)
1 | Cc1c[nH]c(-c2cnc(NCCNc3ccc(C#N)cn3)nc2-c2ccc(Cl)cc2Cl)n1 [CHIR99021] | dose-dependent upregulation |  |  |  |  |  |  |  |  |  |  |  | 
2 | CNC1CCC(N(Cc2cccc(-c3ccncc3)c2)C(=O)c2sc3ccccc3c2Cl)CC1 (stereo not shown) [SAG] |  | increased levels | reduced levels | upregulated | strongly downregulated | no detectable effect | failed to respond | impaired | significantly suppressed | increased | increased after SAG stimulation | undetectable | 
3 | CC1=C2C[C@H]3[C@@H](CC=C4C[C@@H](O)CC[C@@]43C)[C@@H]2CC[C@]12O[C@@H]1C[C@H](C)CN[C@H]1[C@H]2C [cyclopamine] |  |  |  |  |  |  | failed to respond |  | did not reach statistical significance | strong inhibitory effect |  |  | modestly increased
